Converted amounts (≈) assume the structure as drawn.
Experiments:
U-87 MG [1] = assay: Antiproliferative activity against human U87 cells; type: functional, cell-based, U-87MG ATCC
U-251 [2] = assay: Antiproliferative activity against human U251 cells after 24 hrs by MTT assay; type: functional, cell-based; conditions: U-251, 24 h
SNB-19 = assay: Antiproliferative activity against human SNB19 cells after 72 hrs by WST-1 assay; type: functional, cell-based; conditions: SNB-19, 72 h
U-87 MG [3] = assay: Antiproliferative activity against human U87MG cells after 96 hrs; type: functional, U-87MG ATCC
U-87 MG [4] = assay: Antitumor activity against human U87MG cells xenografted in nude-Fox1nu mouse assessed as tumor growth inhibition at 150 mg/kg bid relative to control; type: functional, U-87MG ATCC; conditions: read-out: TGI
A 172 = assay: Antiproliferative activity against human A172 cells after 72 hrs by WST-1 assay; type: functional, cell-based; conditions: A 172, 72 h
[5] = Antiproliferative activity against human BT74 cells after 72 hrs by WST-1 assay; type: functional, cell-based
[6] = Antiproliferative activity against human MGG8 cells after 72 hrs by WST-1 assay; type: functional, cell-based
U-251 [7] = assay: Antiproliferative activity against human U251 cells after 72 hrs by WST-1 assay; type: functional, cell-based; conditions: U-251, 72 h
[8] = Antiproliferative activity against human MGG4 cells after 72 hrs by WST-1 assay; type: functional, cell-based
U-87 MG [9] = assay: Antiproliferative activity against human U87 cells after 72 hrs by WST-1 assay; type: functional, cell-based, U-87MG ATCC
U-87 MG [10] = assay: Antiproliferative activity against human U87 cells after 5 days by AlamarBlue assay; type: functional, cell-based, U-87MG ATCC; conditions: 120 h
T98G = assay: Antiproliferative activity against human T98G cells after 5 days by AlamarBlue assay; type: functional, cell-based; conditions: 120 h
U138-MG = assay: Antiproliferative activity against human U138MG cells after 5 days by AlamarBlue assay; type: functional, cell-based; conditions: 120 h
[11] = Antiproliferative activity against human U373 cells after 5 days by AlamarBlue assay; type: functional, cell-based, U-373MG ATCC; conditions: U373 MG, 120 h
LN-229 [12] = assay: Antiproliferative activity against human LN229 cells after 5 days by AlamarBlue assay; type: functional, cell-based; conditions: LN-229, 120 h
[13] = Antiproliferative activity against human RN1 cells assessed as reduction in cell viability after 72 hrs in presence of irradiation by AlamarBlue assay; type: functional, cell-based; conditions: RN1, light or radiation study
U-251 [14] = assay: Antiproliferative activity against human U251 cells assessed as reduction in cell viability after 72 hrs in presence of irradiation by AlamarBlue assay; type: functional, cell-based; conditions: U-251, light or radiation study
[15] = Antiproliferative activity against human RN1 cells assessed as reduction in cell viability after 72 hrs by AlamarBlue assay; type: functional, cell-based; conditions: RN1, 72 h
SF-539 = assay: Antiproliferative activity against human SF539 cells after 6 days by cell counting analysis; type: functional; conditions: SF-539, 144 h
SNB-78 = assay: Antiproliferative activity against human SNB78 cells after 6 days by cell counting analysis; type: functional; conditions: SNB-78, 144 h
U-251 [16] = assay: Antiproliferative activity against human U251 cells after 6 days by cell counting analysis; type: functional; conditions: U-251, 144 h
SF-268 = assay: Antiproliferative activity against human SF268 cells after 6 days by cell counting analysis; type: functional; conditions: SF-268, 144 h
U-251 [17] = assay: Antitumor activity against human U251 cells xenografted in CAnN. Cg-Foxn1nu/CrlCrlj nude mouse assessed as tumor growth inhibition at 240 mg/kg, ip dosed 5 times a week for 39 days relative to control; type: functional; conditions: U-251, ip, 936 h, read-out: TGI
SF-295 = assay: Antiproliferative activity against human SF295 cells after 6 days by cell counting analysis; type: functional; conditions: SF-295, 144 h
U-251 [18] = assay: Antitumor activity against human U251 cells xenografted in CAnN. Cg-Foxn1nu/CrlCrlj nude mouse assessed as inhibition of tumor weight at 240 mg/kg, ip dosed 5 times a week for 39 days relative to control; type: functional; conditions: U-251, ip, 936 h
SNB-75 = assay: Antiproliferative activity against human SNB75 cells after 6 days by cell counting analysis; type: functional; conditions: SNB-75, 144 h
U-251 [19] = assay: Antiproliferative activity against human U251 cells after 24 hrs by SRB assay; type: functional, cell-based; conditions: U-251, 24 h
Histone deacetylase = assay: Inhibition of mouse liver HDAC using Boc-Lys (Ac)-AMC as substrate preincubated for 5 mins followed by substrate addition and measured after 30 mins by fluorescence assay
[20] = Cytotoxicity against patient derived GSC after 96 hrs by CellTiter-Glo assay; type: functional, Homo sapiens
[21] = Antiproliferative activity against human GBM95 cells after 72 hrs by MTT assay; type: functional, cell-based
U-87 MG [22] = assay: Antiproliferative activity against human U87MG cells after 72 hrs by MTT assay; type: functional, cell-based, U-87MG ATCC
U-87 MG [23] = assay: Antiproliferative activity against human U87MG cells after 96 hrs by SRB assay; type: functional, U-87MG ATCC
U-87 MG [24] = assay: Inhibition of cell proliferation of human U87 cells over-expressing EGFRvIII at 5 uM; type: functional, U-87MG ATCC
LN-229 [25] = assay: Inhibition of cell proliferation of human LN229 cells at 5 uM; type: functional
U-251 [26] = assay: Inhibition of cell proliferation of human U251 cells at 5 uM; type: functional
U-87 MG [27] = assay: Antiproliferative activity against human U87 cells assessed as reduction in cell viability after 72 hrs by AlamarBlue assay; type: functional, cell-based, U-87MG ATCC
U-251 [28] = assay: Antiproliferative activity against human U251 cells assessed as reduction in cell viability after 72 hrs by AlamarBlue assay; type: functional, cell-based; conditions: U-251, 72 h
U-87 MG [29] = assay: Antiproliferative activity against human U87 cells over-expressing EGFRvIII assessed as reduction in cell viability after 72 hrs by AlamarBlue assay; type: functional, cell-based, U-87MG ATCC
U-251 [30] = assay: Antiproliferative activity against human U251 cells by MTT assay; type: functional, cell-based
U-251 [31] = assay: Antiproliferative activity against human U251 cells after 120 hrs by WST-1 assay; type: functional, cell-based; conditions: U-251, 120 h
[32] = Antiproliferative activity against mouse GL26 cells after 120 hrs by WST-1 assay; type: functional, cell-based; conditions: GL26, 120 h

With `NS(=O)(=O)c1cccc2c1C(=O)c1cccc(O)c1C2=O` the IC50 (U-87 MG [1]) was 0.21 µM.

With `Cc1ccc(-c2nnc(SCC(=O)N3N=C(c4cccs4)CC3c3ccc(Cl)cc3)o2)cc1` (stereo not given) the IC50 (U-251 [2]) was 11.9 µM.

With `Cn1cnc2nc(Cl)nc(SCC#CCN3CCCC3)c21` the EC50 (SNB-19) was 5 µg/mL (≈ 15.5 µM).

`CS(=O)(=O)N1CCN(Cc2cc3nc(-c4cccc5[nH]ncc45)nc(N4CCOCC4)c3s2)CC1` [PICTILISIB] showed a GI50 (U-87 MG [3]) of 0.07 µM and an inhibition in vivo at 150 mg/kg (U-87 MG [4]) of 98%.

With `CCn1c(C)c(C(=O)c2ccc(C)c3ccccc23)c2ccccc21` the EC50 (A 172) was 2400 to 8600 µM, the EC50 [5] was 2400 to 8600 µM and the EC50 [6] was 2400 to 8600 µM. The EC50 (U-251 [7]) was 2400 to 8600 µM, the EC50 [8] was 2400 to 8600 µM and the EC50 (U-87 MG [9]) was 2400 to 8600 µM.

For `O=C(Nc1ccc([N+](=O)[O-])cc1Cl)c1cc(Cl)ccc1O` [NICLOSAMIDE], the IC50 (U-87 MG [10]) was 0.3 to 1.2 µM, the IC50 (T98G) was 0.3 to 1.2 µM and the IC50 (U138-MG) was 0.3 to 1.2 µM. For the same compound, the IC50 [11] was 0.3 to 1.2 µM and the IC50 (LN-229 [12]) was 0.3 to 1.2 µM.

With `COc1cc(COc2ccc(NC(=O)CCCc3ccc(-c4cccnc4F)cc3)cc2)c([N+](=O)[O-])cc1OC` the EC50 [13] was 0.3 µM, the EC50 (U-251 [14]) was 1.3 µM and the EC50 [15] was 37.4 µM.

For `Cc1oc2nc1-c1nc(co1)C(=O)N[C@@H](Cc1ccc(O)cc1)c1nc(c(C)o1)-c1nc(c(C)o1)-c1nc(co1)C(=O)N[C@@H](Cc1ccc(O)cc1)c1nc-2c(C)o1`, the GI50 (SF-539) was 0.021 to 0.18 µM, the GI50 (SNB-78) was 0.021 to 0.18 µM and the GI50 (U-251 [16]) was 0.021 to 0.18 µM. For the same compound, the GI50 (SF-268) was 0.021 to 0.18 µM, the inhibition in vivo at 240 mg/kg (U-251 [17]) was 33% and the GI50 (SF-295) was 0.021 to 0.18 µM. It also gave an inhibition in vivo at 240 mg/kg (U-251 [18]) of 61% and a GI50 (SNB-75) of 0.021 to 0.18 µM.

In the case of `COc1ccc2c(c1)c(=O)c(C(=O)Nc1nc3ccccc3s1)cn2CCCCCC(=O)NO`, the IC50 (U-251 [19]) is reported as 0.8 µM and the IC50 (Histone deacetylase) is reported as 0.028 µM.

Compound `CCN(CC)C(=S)SSC(=S)N(CC)CC` has an IC50 [20] of 0.0311 µM.

Compound `CC(C)=CCC1=C(NCCCCN(CN)CCCc2ccccc2)C(=O)c2ccccc2C1=O` has an IC50 [21] of 6.6 µM and an IC50 (U-87 MG [22]) of 4.3 µM.

For `NC1(Cc2ccc(Cl)cc2)CCN(c2ncnc3[nH]ccc23)CC1`, the GI50 (U-87 MG [23]) was 6.3 µM.

`O=c1[nH]c2ncc(-c3ccc(-c4nc[nH]n4)cc3)nc2n1CCC1CCOCC1` showed an inhibition at 5 µM (U-87 MG [24]) of 60%, an inhibition at 5 µM (LN-229 [25]) of 60% and an inhibition at 5 µM (U-251 [26]) of 60%.

With `O=C(CCCCCn1cc(C(=O)Nc2nc3ccccc3s2)c(=O)c2ccccc21)NO` the IC50 (U-251 [19]) was 0.7 µM and the IC50 (Histone deacetylase) was 0.0015 µM.

`O=C(CCCc1ccc(-c2cccnc2F)cc1)Nc1ccc(O)cc1` gave an EC50 (U-87 MG [27]) of 1.4 µM, an EC50 (U-251 [28]) of 1.6 µM and an EC50 (U-87 MG [29]) of 1.7 µM.

Compound `C#CCSc1nc(Cl)nc2nc(SCC#C)n(C)c12` has an IC50 (SNB-19) of 0.07 µg/mL (≈ 0.227 µM).

Work on `O[C@@H](c1cc(C(F)(F)F)nc2c(C(F)(F)F)cccc12)[C@H]1CCCCN1` [(S,R)-MEFLOQUINE] yielded an IC50 (U-251 [30]) of 10 µM.

`C=C1/C(=C/C=C2\CCC[C@]3(C)[C@@H]([C@H](C)CCCCNC(=O)CCC(=O)O)CC[C@@H]23)C[C@@H](O)C[C@@H]1O` showed an IC50 (U-251 [31]) of 0.000457 µM and an IC50 [32] of 0.016 nM.

— ChEMBL document CHEMBL4422617, “Recent advances in the discovery of small molecules targeting glioblastoma” (Eur J Med Chem, 2019)
